Data from ChEMBL document CHEMBL1201862, “PubChem BioAssay data set” (2004).
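Assay format: 96-well plates, 48-hour exposure. GI50 is the concentration that inhibits growth by half.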 Calls of active or inactive are those of the source. Rule as the data show it: active = GI50 up to about 1.1 µM and inactive = higher.

What was measured:
Experiment in all cases: growth of human tumour cells (NCI), 48 h
SN12C = test system: SN12C
HCT-116 = test system: HCT-116
OVCAR-3 = test system: OVCAR-3
UACC-62 = test system: UACC-62
HL-60 = test system: HL-60
UACC-257 = test system: UACC-257
LOX IMVI = test system: LOX IMVI
CAKI-1 = test system: CAKI-1
SNB-19 = test system: SNB-19
PC-3 = test system: PC-3
NCI-H226 = test system: NCI-H226
COLO 205 = test system: COLO 205
A549 = test system: A549
TK-10 = test system: TK-10
SF-539 = test system: SF-539
HOP-62 = test system: HOP-62
HT-29 = test system: HT-29
OVCAR-4 = test system: OVCAR-4
T47D = test system: T47D
U-251 = test system: U-251
HCT-15 = test system: HCT-15
IGROV-1 = test system: IGROV-1
NCI-H460 = test system: NCI-H460
UO-31 = test system: UO-31
SF-268 = test system: SF-268
MCF7 = test system: MCF7
MDA-MB-231 = test system: MDA-MB-231
NCI/ADR-RES = test system: NCI/ADR-RES
MOLT-4 = test system: MOLT-4
SK-OV-3 = test system: SK-OV-3
OVCAR-8 = test system: OVCAR-8
BT-549 = test system: BT-549
RPMI-8226 = test system: RPMI-8226
DU-145 = test system: DU-145
786-0 = test system: 786-0
MDA-MB-435 = test system: MDA-MB-435
M14 = test system: M14
Malme-3M = test system: Malme-3M
SK-MEL-2 = test system: SK-MEL-2
NCI-H522 = test system: NCI-H522
KM12 = test system: KM12
SF-295 = test system: SF-295
SW-620 = test system: SW-620
EKVX = test system: EKVX
NCI-H23 = test system: NCI-H23
K562 = test system: K562
OVCAR-5 = test system: OVCAR-5
Hs-578T = test system: Hs-578T
HOP-92 = test system: HOP-92
MDA-N = test system: MDA-N
SNB-75 = test system: SNB-75
ACHN = test system: ACHN
SK-MEL-5 = test system: SK-MEL-5
HCC 2998 = test system: HCC 2998
CCRF-CEM = test system: CCRF-CEM
SK-MEL-28 = test system: SK-MEL-28
RXF 393 = test system: RXF 393
SR = test system: SR
A498 = test system: A498
KM-20L2 = test system: KM-20L2
DLD-1 = test system: DLD-1
SNB-78 = test system: SNB-78
LXFL 529 = test system: LXFL 529
DMS-114 = test system: DMS-114
M19-MEL = test system: M19-MEL

CN(CCCN1CCCC1)CCCN(C)C(=O)Cc1ccc(Cl)c(Cl)c1
GI50 (SN12C): 21 µM (inactive) | GI50 (HCT-116): 13.6 µM (inactive) | GI50 (OVCAR-3): 27 µM (inactive) | GI50 (UACC-62): 2.36 µM (inactive) | GI50 (HL-60): 15.7 µM (inactive) | GI50 (UACC-257): 2.55 µM (inactive) | GI50 (LOX IMVI): 12.7 µM (inactive) | GI50 (CAKI-1): 20.6 µM (inactive) | GI50 (SNB-19): 26.9 µM (inactive) | GI50 (PC-3): 22.1 µM (inactive) | GI50 (NCI-H226): 26.2 µM (inactive) | GI50 (COLO 205): 17.6 µM (inactive) | GI50 (A549): 18.6 µM (inactive) | GI50 (TK-10): 16.2 µM (inactive) | GI50 (SF-539): 16.7 µM (inactive) | GI50 (HOP-62): 19.2 µM (inactive) | GI50 (HT-29): 3.77 µM (inactive) | GI50 (OVCAR-4): 29.6 µM (inactive) | GI50 (T47D): 21.2 µM (inactive) | GI50 (U-251): 14.9 µM (inactive) | GI50 (HCT-15): 26.1 µM | GI50 (IGROV-1): 23.9 µM (inactive) | GI50 (NCI-H460): 16.3 µM (inactive) | GI50 (UO-31): 4.69 µM (inactive) | GI50 (SF-268): 8.87 µM (inactive) | GI50 (MCF7): 16.6 µM (inactive) | GI50 (MDA-MB-231): 12.6 µM (inactive) | GI50 (NCI/ADR-RES): > 73.3 µM (inactive) | GI50 (MOLT-4): 13.2 µM (inactive) | GI50 (SK-OV-3): 27.7 µM (inactive) | GI50 (OVCAR-8): 30 µM (inactive) | GI50 (BT-549): 18.6 µM (inactive) | GI50 (RPMI-8226): 4.61 µM (inactive) | GI50 (DU-145): 43.9 µM (inactive) | GI50 (786-0): 13.4 µM (inactive) | GI50 (MDA-MB-435): 3.04 µM (inactive) | GI50 (M14): 5.47 µM (inactive) | GI50 (Malme-3M): 18.3 µM (inactive) | GI50 (SK-MEL-2): 13.5 µM (inactive) | GI50 (NCI-H522): 15.7 µM (inactive) | GI50 (KM12): 18.7 µM (inactive) | GI50 (SF-295): 17.7 µM (inactive) | GI50 (SW-620): 18.4 µM (inactive) | GI50 (EKVX): 24.1 µM (inactive) | GI50 (NCI-H23): 21.2 µM (inactive) | GI50 (K562): 5.75 µM (inactive) | GI50 (OVCAR-5): 29.4 µM (inactive) | GI50 (Hs-578T): 5.85 µM (inactive) | GI50 (HOP-92): 8.63 µM (inactive) | GI50 (MDA-N): 4.22 µM (inactive) | GI50 (SNB-75): 18.5 µM (inactive) | GI50 (ACHN): 27.6 µM (inactive) | GI50 (SK-MEL-5): 15.3 µM (inactive) | GI50 (HCC 2998): 5.68 µM (inactive) | GI50 (CCRF-CEM): 6.85 µM (inactive) | GI50 (SK-MEL-28): 1.99 µM (inactive) | GI50 (RXF 393): 12.2 µM (inactive) | GI50 (SR): 11.9 µM (inactive) | GI50 (A498): 14.5 µM (inactive)

CCN1CC2(C)CC[C@@H](OC)C34[C@@H]2[C@H](OC(C)=O)C2(OCO[C@@]25C[C@H](OC)C2C[C@]3(O)[C@@H]5[C@H]2O)[C@H]14
GI50 (SN12C): > 100 µM (inactive) | GI50 (HCT-116): > 100 µM (inactive) | GI50 (OVCAR-3): > 100 µM (inactive) | GI50 (HL-60): > 100 µM (inactive) | GI50 (KM-20L2): > 100 µM (inactive) | GI50 (UACC-257): > 100 µM (inactive) | GI50 (DLD-1): > 100 µM (inactive) | GI50 (LOX IMVI): > 100 µM (inactive) | GI50 (CAKI-1): > 100 µM (inactive) | GI50 (SNB-19): > 100 µM (inactive) | GI50 (NCI-H226): > 100 µM (inactive) | GI50 (COLO 205): > 100 µM (inactive) | GI50 (A549): > 100 µM (inactive) | GI50 (TK-10): > 100 µM (inactive) | GI50 (SF-539): > 100 µM (inactive) | GI50 (HOP-62): 82.6 µM (inactive) | GI50 (HT-29): > 100 µM (inactive) | GI50 (OVCAR-4): > 100 µM (inactive) | GI50 (U-251): > 100 µM (inactive) | GI50 (NCI-H460): > 100 µM (inactive) | GI50 (UO-31): > 100 µM (inactive) | GI50 (SF-268): > 100 µM (inactive) | GI50 (SNB-78): > 100 µM (inactive) | GI50 (LXFL 529): > 100 µM (inactive) | GI50 (OVCAR-8): > 100 µM (inactive) | GI50 (786-0): 34.2 µM (inactive) | GI50 (M14): > 100 µM (inactive) | GI50 (Malme-3M): > 100 µM (inactive) | GI50 (SK-MEL-2): > 100 µM (inactive) | GI50 (NCI-H522): > 100 µM (inactive) | GI50 (KM12): > 100 µM (inactive) | GI50 (SF-295): > 100 µM (inactive) | GI50 (SW-620): > 100 µM (inactive) | GI50 (EKVX): > 100 µM (inactive) | GI50 (NCI-H23): > 100 µM (inactive) | GI50 (DMS-114): > 100 µM (inactive) | GI50 (OVCAR-5): > 100 µM (inactive) | GI50 (HOP-92): > 100 µM (inactive) | GI50 (SNB-75): > 100 µM (inactive) | GI50 (M19-MEL): > 100 µM (inactive) | GI50 (HCC 2998): > 100 µM (inactive) | GI50 (SK-MEL-28): > 100 µM (inactive) | GI50 (RXF 393): 15.8 µM (inactive) | GI50 (SR): > 100 µM (inactive)
